Each molecule was assayed on B cell (assay: B cell proliferation).
Assay type: cell-based

Q: `Cc1ccccc1-n1c(Cn2nc(C#C[C@H](C)O)c3c(N)ncnc32)cc2cccc(C)c2c1=O` [Compound 85] was tested. Which EC50 did it give?
A: < 1000 nM

Q: For `Cc1cccc2cc(Cn3nc(I)c4c(N)ncnc43)n(C3CC3)c(=O)c12` [Compound 86], which EC50 is on record?
A: < 1000 nM

Q: With `Cc1cccc2cc(Cn3nc(I)c4c(N)ncnc43)n(C3CCCCC3)c(=O)c12` [Compound 87] as the molecule, how does the EC50 read?
A: < 10000 nM

Q: With `CCc1ccccc1-n1c(Cn2nc(-c3cccc(O)c3)c3c(N)ncnc32)cc2cccc(C)c2c1=O` [Compound 88] as the molecule, how does the EC50 read?
A: < 100 nM

Q: Which EC50 does the source give for `CCc1ccccc1-n1c(Cn2nc(-c3cc(O)cc(F)c3)c3c(N)ncnc32)cc2cccc(C)c2c1=O` [Compound 89] here?
A: < 100 nM

Q: `Cc1cccc2cc(Cn3nc(-c4cc(O)cc(F)c4)c4c(N)ncnc43)n(-c3ccccc3O)c(=O)c12` [Compound 90] was tested. Which EC50 did it give?
A: < 100 nM

Q: Which EC50 does the source give for `Cc1cccc2cc(Cn3nc(C#C[C@@H](C)O)c4c(N)ncnc43)n(-c3ccccc3O)c(=O)c12` [Compound 91] here?
A: < 1000 nM

Q: How did the EC50 turn out when `Cc1cccnc1-n1c(Cn2nc(-c3cc(O)cc(F)c3)c3c(N)ncnc32)cc2ccccc2c1=O` [Compound 93] was run?
A: < 100 nM

Q: With `Cc1cccc2cc(Cn3nc(-c4cc(O)cc(F)c4)c4c(N)ncnc43)n(-c3ccccc3C(C)C)c(=O)c12` [Compound 95] as the molecule, how does the EC50 read?
A: < 100 nM

Q: Which EC50 does the source give for `Cc1cccc2cc(Cn3nc(-c4cccc(O)c4)c4c(N)ncnc43)n(-c3ccccc3Cl)c(=O)c12` [Compound 96] here?
A: < 100 nM

Q: With `Cc1cccc2cc(Cn3nc(-c4cc(O)cc(F)c4)c4c(N)ncnc43)n(-c3ccccc3Cl)c(=O)c12` [Compound 97] as the molecule, how does the EC50 read?
A: < 100 nM

Q: With `Cc1cccc2cc(Cn3nc(C#C[C@@H](C)O)c4c(N)ncnc43)n(-c3ccccc3Cl)c(=O)c12` [Compound 98] as the molecule, how does the EC50 read?
A: < 1000 nM

Q: `CCc1ccccc1-n1c(Cn2nc(C#C[C@@H](C)O)c3c(N)ncnc32)cc2cccc(C)c2c1=O` [Compound 99] was tested. Which EC50 did it give?
A: < 100 nM

Q: How did the EC50 turn out when `Cc1cccc2cc(Cn3nc(C#C[C@@H](C)O)c4c(N)ncnc43)n(C3CC3)c(=O)c12` [Compound 100] was run?
A: < 1000 nM

Q: For `Cc1cccc2cc(Cn3nc(-c4cc(O)cc(F)c4)c4c(N)ncnc43)n(C3CC3)c(=O)c12` [Compound 101], which EC50 is on record?
A: < 100 nM

Q: With `Cc1cccc2cc(Cn3nc(-c4cccc(O)c4)c4c(N)ncnc43)n(C3CC3)c(=O)c12` [Compound 102] as the molecule, how does the EC50 read?
A: < 100 nM

Q: How did the EC50 turn out when `Cc1cccc2cc(Cn3nc(I)c4c(N)ncnc43)n(-c3ccccc3OCCN3CCOCC3)c(=O)c12` [Compound 103] was run?
A: < 1000 nM

Q: How did the EC50 turn out when `Cc1cccc2cc(Cn3nc(I)c4c(N)ncnc43)n(C3CCC3)c(=O)c12` [Compound 105] was run?
A: < 1000 nM

Q: `COc1cccc(-c2nn(Cc3cc4cccc(C)c4c(=O)n3-c3ccccc3C)c3ncnc(N)c23)c1` [Compound 106] was tested. Which EC50 did it give?
A: < 1000 nM

Q: With `Cc1cccc2cc(Cn3nc(I)c4c(N)ncnc43)n(C)c(=O)c12` [Compound 107] as the molecule, how does the EC50 read?
A: < 1000 nM

Q: Which EC50 does the source give for `Cc1cccc2cc(Cn3nc(-c4cc(O)cc(F)c4)c4c(N)ncnc43)n(-c3ccccc3OCCN3CCOCC3)c(=O)c12` [Compound 108] here?
A: < 100 nM

Q: Which EC50 does the source give for `Cc1cccc2cc(Cn3nc(-c4cccc(O)c4)c4c(N)ncnc43)n(-c3ccccc3OCCN3CCOCC3)c(=O)c12` [Compound 109] here?
A: < 100 nM

Q: For `Cc1cccc2cc(Cn3nc(-c4cc(O)cc(F)c4)c4c(N)ncnc43)n(C3CCCCC3)c(=O)c12` [Compound 110], which EC50 is on record?
A: < 1000 nM

Q: How did the EC50 turn out when `Cc1cccc2cc(Cn3nc(-c4cccc(O)c4)c4c(N)ncnc43)n(C3CCCCC3)c(=O)c12` [Compound 111] was run?
A: < 1000 nM

Q: How did the EC50 turn out when `Cc1cccc2cc(Cn3nc(C#C[C@@H](C)O)c4c(N)ncnc43)n(C3CCCCC3)c(=O)c12` [Compound 112] was run?
A: < 10000 nM

Q: With `Cc1cccc2cc(Cn3nc(-c4cccc(O)c4)c4c(N)ncnc43)n(C3CCC3)c(=O)c12` [Compound 114] as the molecule, how does the EC50 read?
A: < 1000 nM

Q: Which EC50 does the source give for `Cc1cccc2cc(Cn3nc(-c4cc(O)cc(F)c4)c4c(N)ncnc43)n(C3CCC3)c(=O)c12` [Compound 115] here?
A: < 100 nM

Q: Which EC50 does the source give for `Cc1ccccc1-n1c(Cn2nc(-c3cccc(O)c3)c3c(N)nccc32)cc2cccc(C)c2c1=O` [Compound 119] here?
A: < 1000 nM

Q: How did the EC50 turn out when `Cc1cccc2cc(Cn3nc(-c4ccc(Cl)c(O)c4)c4c(N)ncnc43)n(C(C)C)c(=O)c12` [Compound 123] was run?
A: < 100 nM

Q: `Cc1cccc2cc(Cn3nc(-c4cccc(O)c4)c4c(N)ncnc43)n(C)c(=O)c12` [Compound 124] was tested. Which EC50 did it give?
A: < 1000 nM

Q: Which EC50 does the source give for `Cc1cccc2cc(Cn3nc(-c4cc(O)cc(F)c4)c4c(N)ncnc43)n(C)c(=O)c12` [Compound 125] here?
A: < 100 nM

Q: For `CCn1c(Cn2nc(-c3cccc(O)c3)c3c(N)ncnc32)cc2cccc(C)c2c1=O` [Compound 126], which EC50 is on record?
A: < 100 nM

Q: For `Cc1cccc2cc(Cn3nc(-c4cc(O)cc(F)c4)c4c(N)ncnc43)n(C3CCOCC3)c(=O)c12` [Compound 128], which EC50 is on record?
A: < 100 nM

Q: `CC(C)n1c(Cn2nc(-c3cccc(O)c3)c3c(N)ncnc32)cc2cccc(F)c2c1=O` [Compound 133] was tested. Which EC50 did it give?
A: < 1000 nM

Q: `CC(C)n1c(Cn2nc(-c3cc(O)cc(F)c3)c3c(N)ncnc32)cc2cccc(F)c2c1=O` [Compound 134] was tested. Which EC50 did it give?
A: < 100 nM

Q: `CC(C)n1c(Cn2nc(-c3cccc(O)c3)c3c(N)ncnc32)cc2ccccc2c1=O` [Compound 135] was tested. Which EC50 did it give?
A: < 1000 nM

Q: For `CC(C)n1c(Cn2nc(-c3cc(O)cc(F)c3)c3c(N)ncnc32)cc2ccccc2c1=O` [Compound 136], which EC50 is on record?
A: < 100 nM

Q: With `CC(C)n1c(Cn2nc(-c3cccc(O)c3)c3c(N)ncnc32)cc2cccc(Cl)c2c1=O` [Compound 137] as the molecule, how does the EC50 read?
A: < 100 nM

Q: How did the EC50 turn out when `CC(C)n1c(Cn2nc(-c3cc(O)cc(F)c3)c3c(N)ncnc32)cc2cccc(Cl)c2c1=O` [Compound 138] was run?
A: < 100 nM

Q: For `Nc1ncnc2c1c(I)nn2Cc1cc2cccc(Cl)c2c(=O)n1C1CC1` [Compound 139], which EC50 is on record?
A: < 100 nM

Q: Which EC50 does the source give for `Nc1ncnc2c1c(-c1cccc(O)c1)nn2Cc1cc2cccc(Cl)c2c(=O)n1C1CC1` [Compound 141] here?
A: < 100 nM

Q: With `Nc1ncnc2c1c(-c1cc(O)cc(F)c1)nn2Cc1cc2cccc(Cl)c2c(=O)n1C1CC1` [Compound 142] as the molecule, how does the EC50 read?
A: < 100 nM

Q: With `Nc1ncnc2c1c(-c1cc(O)cc(F)c1)nn2Cc1cc2cccc(F)c2c(=O)n1-c1ccccc1F` [Compound 144] as the molecule, how does the EC50 read?
A: < 100 nM

Q: `Cc1ccccc1-n1c(Cn2nc(-c3ccc4nc(N)sc4c3)c3c(N)ncnc32)cc2cccc(C)c2c1=O` [Compound 145] was tested. Which EC50 did it give?
A: < 1000 nM

Q: For `Cc1cccc2cc(Cn3nc(-c4cccc(O)c4)c4c(N)ncnc43)n(-c3ccccc3)c(=O)c12` [Compound 146], which EC50 is on record?
A: < 100 nM

Q: `Cc1cccc2cc(Cn3nc(-c4cc(O)cc(F)c4)c4c(N)ncnc43)n(-c3ccccc3)c(=O)c12` [Compound 147] was tested. Which EC50 did it give?
A: < 100 nM

Q: Which EC50 does the source give for `CNC(=O)Nc1nc2ccc(-c3nn(Cc4cc5cccc(C)c5c(=O)n4-c4ccccc4C)c4ncnc(N)c34)cc2s1` [Compound 148] here?
A: < 100 nM

Q: Which EC50 does the source give for `Cc1ccccc1-n1c(Cn2nc(-c3ccc4nc(N)ccc4c3)c3c(N)ncnc32)cc2cccc(C)c2c1=O` [Compound 149] here?
A: < 100 nM

Q: How did the EC50 turn out when `Cc1ccccc1-n1c(Cn2nc(-c3ccc4nc(N)ncc4c3)c3c(N)ncnc32)cc2cccc(C)c2c1=O` [Compound 150] was run?
A: < 100 nM

Q: How did the EC50 turn out when `Cc1ccccc1-n1c(Cn2nc(-c3ccc4oc(N)nc4c3)c3c(N)ncnc32)cc2cccc(C)c2c1=O` [Compound 151] was run?
A: < 100 nM

Q: For `Cc1ccccc1-n1c(Cn2nc(-c3ccc4ncnc(N)c4c3)c3c(N)ncnc32)cc2cccc(C)c2c1=O` [Compound 152], which EC50 is on record?
A: < 1000 nM

Q: For `CC(=O)Nc1nc2ccc(-c3nn(Cc4cc5cccc(C)c5c(=O)n4C)c4ncnc(N)c34)cc2s1` [Compound 153], which EC50 is on record?
A: < 100 nM

Q: How did the EC50 turn out when `CC(=O)Nc1nc2ccc(-c3nn(Cc4cc5cccc(C)c5c(=O)n4C(C)C)c4ncnc(N)c34)cc2s1` [Compound 154] was run?
A: < 100 nM

Q: With `CC(=O)Nc1nc2ccc(-c3nn(Cc4cc5cccc(C)c5c(=O)n4C4CC4)c4ncnc(N)c34)cc2s1` [Compound 155] as the molecule, how does the EC50 read?
A: < 100 nM

Q: Which EC50 does the source give for `CC(=O)Nc1nc2ccc(-c3nn(Cc4cc5cccc(Cl)c5c(=O)n4C4CC4)c4ncnc(N)c34)cc2s1` [Compound 156] here?
A: < 100 nM

Q: With `CC(=O)Nc1nc2ccc(-c3nn(Cc4cc5cccc(Cl)c5c(=O)n4C(C)C)c4ncnc(N)c34)cc2s1` [Compound 157] as the molecule, how does the EC50 read?
A: < 100 nM

Q: `CC(=O)Nc1nc2ccc(-c3nn(Cc4cc5cccc(F)c5c(=O)n4C(C)C)c4ncnc(N)c34)cc2s1` [Compound 158] was tested. Which EC50 did it give?
A: < 100 nM

Q: Which EC50 does the source give for `CC(=O)Nc1nc2ccc(-c3nn(Cc4cc5cccc(C)c5c(=O)n4C4CCC4)c4ncnc(N)c34)cc2s1` [Compound 159] here?
A: < 100 nM

Q: For `Cc1ccccc1-n1c(Cn2nc(-c3cn[nH]c3)c3c(N)ncnc32)cc2cccc(C)c2c1=O` [Compound 160], which EC50 is on record?
A: < 100 nM

Q: `Cc1cccc2cc(Cn3nc(-c4cn[nH]c4)c4c(N)ncnc43)n(-c3ccccc3F)c(=O)c12` [Compound 161] was tested. Which EC50 did it give?
A: < 1000 nM

Q: Which EC50 does the source give for `Cc1ccccc1-n1c(Cn2nc(-c3cnn(CCO)c3)c3c(N)ncnc32)cc2cccc(C)c2c1=O` [Compound 163] here?
A: < 1000 nM

Q: How did the EC50 turn out when `Cc1cccc2cc(Cn3nc(-c4cn[nH]c4)c4c(N)ncnc43)n(-c3cccc(F)c3)c(=O)c12` [Compound 166] was run?
A: < 100 nM

Q: Which EC50 does the source give for `Cc1cccc2cc(C(C)Nc3ncnc4[nH]cnc34)n(-c3ccccc3F)c(=O)c12` (stereo not shown) [Compound 167] here?
A: < 100 nM

Q: For `CC(=O)Nc1nc2ccc(-c3nn(Cc4cc5ccccc5c(=O)n4-c4ccccc4C)c4ncnc(N)c34)cc2s1` [Compound 168], which EC50 is on record?
A: < 100 nM

Q: With `Cc1cccc2cc(Cn3nc(C#N)c4c(N)ncnc43)n(-c3ccccc3F)c(=O)c12` [Compound 169] as the molecule, how does the EC50 read?
A: < 1000 nM

Q: For `Cc1ccccc1-n1c(Cn2nc(C#N)c3c(N)ncnc32)cc2cccc(C)c2c1=O` [Compound 170], which EC50 is on record?
A: < 100 nM

Q: How did the EC50 turn out when `Cc1cccc2cc(Cn3nc(/C=C4/SC(=O)NC4=O)c4c(N)ncnc43)n(-c3ccccc3F)c(=O)c12` [Compound 171] was run?
A: < 100 nM

Q: Which EC50 does the source give for `Cc1ccccc1-n1c(Cn2nc(/C=C3/SC(=O)NC3=O)c3c(N)ncnc32)cc2cccc(C)c2c1=O` [Compound 173] here?
A: < 100 nM

Q: For `Cc1ccccc1-n1c(Cn2nc(/C=C/C(N)=O)c3c(N)ncnc32)cc2cccc(C)c2c1=O` [Compound 174], which EC50 is on record?
A: < 100 nM

Q: With `CCn1c(Cn2nc(-c3ccc4nc(NC(C)=O)sc4c3)c3c(N)ncnc32)cc2cccc(C)c2c1=O` [Compound 176] as the molecule, how does the EC50 read?
A: < 100 nM

Q: `CC(=O)Nc1nc2ccc(-c3nn(Cc4cc5cccc(C)c5c(=O)n4-c4ccccc4)c4ncnc(N)c34)cc2s1` [Compound 177] was tested. Which EC50 did it give?
A: < 100 nM

Q: How did the EC50 turn out when `CC(=O)Nc1nc2ccc(-c3nn(Cc4cc5cccc(C)c5c(=O)n4-c4cccc(F)c4)c4ncnc(N)c34)cc2s1` [Compound 178] was run?
A: < 100 nM

Q: `C=Cc1nn(Cc2cc3cccc(C)c3c(=O)n2-c2ccccc2C)c2ncnc(N)c12` [Compound 180] was tested. Which EC50 did it give?
A: < 100 nM
